Drawing on PubChem BioAssay (NCI), this text covers GI50 and TGI for 13 compounds.

“And” between values parts separate entries of the source, which are not always exact repeats. Identical values can stand only once.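 Each compound was tested at five concentrations against cells in 96-well plates for 48 hours. GI50 marks 50% less growth. TGI denotes the concentration required for complete inhibition of growth.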

The subject of the first test is MDA-MB-231 breast. The test is described as follows: growth of human tumour cells (NCI), 48 h.
`C#Cc1c(F)ccc2cc(O)cc(-c3ncc4c(N5CC6CCC(C5)N6)nc(OC[C@@]56CCCN5C[C@H](F)C6)nc4c3F)c12`: the GI50 was 2.36 µM and the TGI was found to be 13.7 µM.
On the same counts, the results for `C=C(C)C(=O)Nc1ccc(NC(C)C)cc1` are more than 100 µM and more than 100 µM.
Turning to `COc1cc(CSc2nc3ccc(C)cc3c(=O)n2-c2ccccc2)cc(OC)c1OC`, the GI50 was 2.92 µM and the TGI was more than 100 µM.
`O=C(O)CNC(=O)c1ccc(-c2ccccc2)cc1` gave a TGI of more than 100 µM.
On the same count and under the same terms, to `CC1CCC(NC(=O)N(CCCl)N=O)CC1` (stereo not drawn) belongs 91.2 µM; to `COc1ccc(C2=CC(c3ccc4c(c3)OCO4)c3c(c4ccccc4oc3=O)O2)cc1OC` (stereo not drawn), more than 100 µM.
Turning to `CC(C)[C@H](N)C(=O)N1CCC[C@H]1B(O)O`, the GI50 is more than 100 µM and the TGI is more than 100 µM.
As for `CC(=O)OCC1OC(n2cnc(C(N)=S)c2N)C(OC(C)=O)C1OC(C)=O` (stereo not drawn), the TGI is more than 100 µM.
As to `CC(C)(C)n1cc(-c2ccnc(NCCCNS(=O)(=O)c3ccc(C(F)(F)F)cc3)c2)c(-c2cccc(O)c2)n1`, the GI50 was 2.13 µM and the TGI came to 3.98 µM.
On the same counts, the results for `O=C1Nc2ccccc2/C1=C/C(=O)c1coc2c1C(=O)c1ccccc1C2=O` are more than 100 µM and more than 100 µM.
On the same counts, the results for `Nc1c(C(=O)c2cccc(-c3ccncc3)c2)cnn1-c1ccc(F)cc1F` are 15.2 µM and more than 25 µM.
On the same counts, the results for `C=C1C(=O)O[C@H]2[C@H]1CC/C(COC(=O)NCc1ccc(Cn3c(=O)sn(CCCl)c3=O)cc1)=C\CC[C@@]1(C)O[C@@H]21` are 1.89 µM and 3.68 µM.
For `COc1ccc2c(c1)c(=O)oc1cc(OC/C(C)=N\O)ccc12`, the GI50 is 42.9 µM and the TGI is more than 100 µM.

The subject of another test is SF-539 CNS. In words: growth of human tumour cells (NCI), 48 h.
Consider `C#Cc1c(F)ccc2cc(O)cc(-c3ncc4c(N5CC6CCC(C5)N6)nc(OC[C@@]56CCCN5C[C@H](F)C6)nc4c3F)c12`, for which the GI50 is 14 µM and the TGI was found to be 27.2 µM.
On the same counts, the results for `C=C(C)C(=O)Nc1ccc(NC(C)C)cc1` are more than 100 µM and more than 100 µM.
On the same counts, the results for `COc1cc(CSc2nc3ccc(C)cc3c(=O)n2-c2ccccc2)cc(OC)c1OC` are 2.08 µM and 9.52 µM.
Compound `O=C(O)CNC(=O)c1ccc(-c2ccccc2)cc1` showed a TGI of more than 100 µM.
As for `CC1CCC(NC(=O)N(CCCl)N=O)CC1` (stereo not drawn), the GI50 is 18.9 µM; the TGI was 43.8 µM and 62.3 µM.
As to `COc1ccc(C2=CC(c3ccc4c(c3)OCO4)c3c(c4ccccc4oc3=O)O2)cc1OC` (stereo not drawn), the TGI is more than 22.5 µM.
In the case of `CC(C)[C@H](N)C(=O)N1CCC[C@H]1B(O)O`, the GI50 is more than 100 µM and the TGI was more than 100 µM.
Take `CC(=O)OCC1OC(n2cnc(C(N)=S)c2N)C(OC(C)=O)C1OC(C)=O` (stereo not drawn): the TGI is more than 100 µM.
Turning to `CC(C)(C)n1cc(-c2ccnc(NCCCNS(=O)(=O)c3ccc(C(F)(F)F)cc3)c2)c(-c2cccc(O)c2)n1`, the GI50 is 1.65 µM and the TGI was found to be 3.09 µM.
On the same counts, the results for `O=C1Nc2ccccc2/C1=C/C(=O)c1coc2c1C(=O)c1ccccc1C2=O` are more than 100 µM and more than 100 µM.
On the same counts, the results for `Nc1c(C(=O)c2cccc(-c3ccncc3)c2)cnn1-c1ccc(F)cc1F` are more than 16.4 µM and more than 25 µM.
On the same counts, the results for `C=C1C(=O)O[C@H]2[C@H]1CC/C(COC(=O)NCc1ccc(Cn3c(=O)sn(CCCl)c3=O)cc1)=C\CC[C@@]1(C)O[C@@H]21` are 1.82 µM and 3.26 µM.
As to `COc1ccc2c(c1)c(=O)oc1cc(OC/C(C)=N\O)ccc12`, the GI50 is 59.5 µM and the TGI was more than 100 µM.

The subject of a further test is HS 578T breast. In words: growth of human tumour cells (NCI), 48 h.
Take `C#Cc1c(F)ccc2cc(O)cc(-c3ncc4c(N5CC6CCC(C5)N6)nc(OC[C@@]56CCCN5C[C@H](F)C6)nc4c3F)c12`: the GI50 was 8.47 µM and the TGI was determined as 28.2 µM.
On the same counts, the results for `C=C(C)C(=O)Nc1ccc(NC(C)C)cc1` are more than 100 µM and more than 100 µM.
On to `COc1cc(CSc2nc3ccc(C)cc3c(=O)n2-c2ccccc2)cc(OC)c1OC`, for which the GI50 was 2.16 µM and the TGI was more than 100 µM.
The compound `O=C(O)CNC(=O)c1ccc(-c2ccccc2)cc1` yielded a TGI of more than 100 µM.
Still for that read-out and setting: under `CC1CCC(NC(=O)N(CCCl)N=O)CC1` (stereo not drawn) stands 155 µM.
As to `COc1ccc(C2=CC(c3ccc4c(c3)OCO4)c3c(c4ccccc4oc3=O)O2)cc1OC` (stereo not drawn), the TGI was more than 25.6 µM.
Take `CC(C)[C@H](N)C(=O)N1CCC[C@H]1B(O)O`: the GI50 is more than 100 µM and the TGI is more than 100 µM.
In turn, `CC(=O)OCC1OC(n2cnc(C(N)=S)c2N)C(OC(C)=O)C1OC(C)=O` (stereo not drawn) showed a TGI of more than 100 µM.
Take `CC(C)(C)n1cc(-c2ccnc(NCCCNS(=O)(=O)c3ccc(C(F)(F)F)cc3)c2)c(-c2cccc(O)c2)n1`: the GI50 was 1.98 µM and the TGI amounted to 4.84 µM.
On the same counts, the results for `O=C1Nc2ccccc2/C1=C/C(=O)c1coc2c1C(=O)c1ccccc1C2=O` are more than 100 µM and more than 100 µM.
On the same counts, the results for `Nc1c(C(=O)c2cccc(-c3ccncc3)c2)cnn1-c1ccc(F)cc1F` are more than 25 µM and more than 25 µM.
On the same counts, the results for `C=C1C(=O)O[C@H]2[C@H]1CC/C(COC(=O)NCc1ccc(Cn3c(=O)sn(CCCl)c3=O)cc1)=C\CC[C@@]1(C)O[C@@H]21` are 12.1 µM and 55.9 µM.
With `COc1ccc2c(c1)c(=O)oc1cc(OC/C(C)=N\O)ccc12`, the GI50 was 27.6 µM and the TGI is more than 100 µM.

The subject of the next test is T-47D breast. In words: growth of human tumour cells (NCI), 48 h.
In the case of `C#Cc1c(F)ccc2cc(O)cc(-c3ncc4c(N5CC6CCC(C5)N6)nc(OC[C@@]56CCCN5C[C@H](F)C6)nc4c3F)c12`, the GI50 was 16.3 µM and the TGI worked out at 40.1 µM.
With `C=C(C)C(=O)Nc1ccc(NC(C)C)cc1`, the GI50 was more than 100 µM and the TGI is more than 100 µM.
For the compound `COc1cc(CSc2nc3ccc(C)cc3c(=O)n2-c2ccccc2)cc(OC)c1OC`, the GI50 is 1.56 µM and the TGI is more than 100 µM.
`O=C(O)CNC(=O)c1ccc(-c2ccccc2)cc1` came in with a TGI of more than 100 µM.
The same measure, in the same setting: to `CC1CCC(NC(=O)N(CCCl)N=O)CC1` (stereo not drawn) belongs 88.1 µM; to `COc1ccc(C2=CC(c3ccc4c(c3)OCO4)c3c(c4ccccc4oc3=O)O2)cc1OC` (stereo not drawn), more than 100 µM.
`CC(C)[C@H](N)C(=O)N1CCC[C@H]1B(O)O`: the GI50 was more than 100 µM and the TGI was more than 100 µM.
For `CC(=O)OCC1OC(n2cnc(C(N)=S)c2N)C(OC(C)=O)C1OC(C)=O` (stereo not drawn), the TGI was more than 100 µM.
`CC(C)(C)n1cc(-c2ccnc(NCCCNS(=O)(=O)c3ccc(C(F)(F)F)cc3)c2)c(-c2cccc(O)c2)n1`: the GI50 was 2.24 µM and the TGI came to 6.61 µM.
`O=C1Nc2ccccc2/C1=C/C(=O)c1coc2c1C(=O)c1ccccc1C2=O`: the GI50 was 56.9 µM and the TGI is more than 100 µM.
On the same counts, the results for `Nc1c(C(=O)c2cccc(-c3ccncc3)c2)cnn1-c1ccc(F)cc1F` are 3.67 µM and more than 25 µM.
On the same counts, the results for `C=C1C(=O)O[C@H]2[C@H]1CC/C(COC(=O)NCc1ccc(Cn3c(=O)sn(CCCl)c3=O)cc1)=C\CC[C@@]1(C)O[C@@H]21` are 1.97 µM and 5.16 µM.
On the same counts, the results for `COc1ccc2c(c1)c(=O)oc1cc(OC/C(C)=N\O)ccc12` are more than 100 µM and more than 100 µM.

A further test has as its system HCC-2998 colon. The test is described as follows: growth of human tumour cells (NCI), 48 h.
As to `C#Cc1c(F)ccc2cc(O)cc(-c3ncc4c(N5CC6CCC(C5)N6)nc(OC[C@@]56CCCN5C[C@H](F)C6)nc4c3F)c12`, the GI50 is 1.32 µM and the TGI amounted to 17.5 µM.
For `C=C(C)C(=O)Nc1ccc(NC(C)C)cc1`, the GI50 was more than 100 µM and the TGI is more than 100 µM.
As for `COc1cc(CSc2nc3ccc(C)cc3c(=O)n2-c2ccccc2)cc(OC)c1OC`, the GI50 is 5.49 µM and the TGI is more than 100 µM.
On to `O=C(O)CNC(=O)c1ccc(-c2ccccc2)cc1`, for which the TGI was more than 100 µM.
As to `CC1CCC(NC(=O)N(CCCl)N=O)CC1` (stereo not drawn), the TGI was 93.9 µM.
Still for that read-out and setting: to `COc1ccc(C2=CC(c3ccc4c(c3)OCO4)c3c(c4ccccc4oc3=O)O2)cc1OC` (stereo not drawn) belongs more than 27.2 µM.
Turning to `CC(C)[C@H](N)C(=O)N1CCC[C@H]1B(O)O`, the GI50 was more than 100 µM and the TGI was more than 100 µM.
The compound `CC(=O)OCC1OC(n2cnc(C(N)=S)c2N)C(OC(C)=O)C1OC(C)=O` (stereo not drawn) gave a TGI of more than 100 µM.
With `CC(C)(C)n1cc(-c2ccnc(NCCCNS(=O)(=O)c3ccc(C(F)(F)F)cc3)c2)c(-c2cccc(O)c2)n1`, the GI50 was 1.82 µM and the TGI stood at 3.25 µM.
As to `O=C1Nc2ccccc2/C1=C/C(=O)c1coc2c1C(=O)c1ccccc1C2=O`, the GI50 was more than 100 µM and the TGI was more than 100 µM.
For `Nc1c(C(=O)c2cccc(-c3ccncc3)c2)cnn1-c1ccc(F)cc1F`, the GI50 was more than 21.3 µM and the TGI was more than 25 µM.
On the same counts, the results for `C=C1C(=O)O[C@H]2[C@H]1CC/C(COC(=O)NCc1ccc(Cn3c(=O)sn(CCCl)c3=O)cc1)=C\CC[C@@]1(C)O[C@@H]21` are 17.3 µM and 33 µM.
On the same counts, the results for `COc1ccc2c(c1)c(=O)oc1cc(OC/C(C)=N\O)ccc12` are more than 100 µM and more than 100 µM.

A further test deals with CAKI-1 renal. In words: growth of human tumour cells (NCI), 48 h.
Consider `C#Cc1c(F)ccc2cc(O)cc(-c3ncc4c(N5CC6CCC(C5)N6)nc(OC[C@@]56CCCN5C[C@H](F)C6)nc4c3F)c12`, for which the GI50 was 17.5 µM and the TGI was determined as 35.6 µM.
